Data set [1] can be described thus: Hydrolysis of anthracycline-formaldehyde N-Mannich bases followed by HPLC. The protocol: The area under the curve for the N-Mannich base was determined at each time point and was used to establish the kinetics of decomposition, using regression software. Hydrolysis of AOM-doxsaliform was carried out in pH 8.0 100 mM sodium phosphate buffer at 37° C. AOM-doxsaliform was dissolved in 48.0 μL DMSO and this solution was diluted into phosphate buffer to give 4.8 mL of an […] solution containing 1% DMSO. To this solution was added 6 μL of pig liver esterase (0.8 units/μL; Sigma; Milwaukee, Wis.) to achieve a final concentration of 1.0 units/mL. […] Brief centrifugation served to pellet the insoluble fraction. The drug solution was then transferred to a round bottom flask and concentrated by brief rotary-evaporation at 20° C. Reverse phase HPLC was used to analyze the extent of hydrolysis.
Hydrolysis of the N-Mannich bases, prepared from either doxorubicin or daunorubicin and the respective amides, at 37° C. in pH 7.4 triethylammonium acetate (TEAA) buffer (20 mM) containing 10-30% MeOH was monitored by reverse phase HPLC. […] Identification of a less robust construct that could be used to rapidly deliver the active Schiff base metabolite of doxorubicin to a growing tumor was undertaken.

For data set [2] the following is noted: cell line not stated; cited from earlier work.
For data set [3], the target named is T1, estrogen receptor (Homo sapiens, UniProt P03372).
T1 construct: endogenous in cells; host or cells: MCF-7 cells (ATCC); 225,000 g supernatant of sonicated lysate
The data set can be described thus: Estrogen receptor competitive binding assay (3H-E2, MCF-7 cell lysate).

Data set [4] concerns MDA-MB-231 cells. The data set can be described thus: Uptake and release by flow cytometry. It counts as cell-based, human. From the text: Additionally, uptake and release data were obtained for DOX, DOXSF, and DOX-TEG-TAM in estrogen receptor-negative MDA-MB-435 and MDA-MB-231 cells. In both cell lines DOX-TEG-TAM was also taken up to a much greater extent than DOX and DOXSF. In MDA-MB-435 cells DOX-TEG-TAM was taken up 3-fold and 5-fold more than DOXSF and DOX, respectively. In MDA-MB-23 1 cells DOX-TEG-TAM was taken up 2-fold and 6-fold more than DOXSF and DOX, respectively.
Uptake and release of DOX, DOXSF, and DOX-TEG-TAM: The uptake and release of DOX-TEG-TAM in breast cancer cells relative to DOX and untargeted DOXSF was performed as described with modifications. Breast cancer cells in log phase growth were dissociated with trypsin-EDTA, counted, resuspended in media at 1.5×10^5 cells/mL, and plated into six well plates (450,000 cells/well) and allowed to adhere overnight. The cells were treated with 0.5 μM DOX, DOXSF, or DOX-TEG-TAM for various amounts of time (20 min, 40 min, and 60 min). Drug treatment was accomplished by addition of 30 μL of 100× drug solution (50 μM) to 3 mL of media which was mixed and immediately added to the cells. For each time point, the media was removed, cells were trypsinized, and trypsinization was quenched with 3 mL phenol red-free RPMI 1640 media (no serum) at 4° C. Cells were pelleted by centrifugation at 300 g for 5 min at 10° C. The supernatant was decanted and the cells were re-suspended in 1 mL serum- and phenol red-free RPMI 1640 media and placed on ice.
For drug retention samples, the cells were treated for 1 h with 0.5 μM DOX, DOXSF, or DOX-TEG-TAM. Following drug treatment, the media was removed and replaced with 3 mL fresh, 37° C., full (containing serum and phenol red indicator) cell media and the cells were incubated for various times (0.5 h, 1 h, 3 h, and 6 h). Following the allotted release times, the cells were prepared as described above. Drug treatment was performed such that all cell samples would be prepared within 2 h.
The extent of drug uptake and retention was measured by flow cytometry. Cells were analyzed with excitation at 488 nm (15 mW Ar ion laser), with emission monitored between 570 and 600 nm. Instrument settings were optimized for each cell line and held constant for all experiments; 10,000 cells were analyzed for anthracycline fluorescence. The data are presented as the mean fluorescence for each condition with the background, drug-free cell fluorescence subtracted.
(Flow cytometry measures light scatter and fluorescence of single cells or particles in a stream.)

Values joined by “and” are separate entries in the source; they are usually repeats but may differ in a detail not shown here. Equal values may be shown once.

Data on two molecules can be found in patent US20070275911A1, “Targeted Drug-Formaldehyde Conjugates and Methods of Making and Using the Same” (priority 2003, published 2007).

T1 sequence (P03372 whole entry): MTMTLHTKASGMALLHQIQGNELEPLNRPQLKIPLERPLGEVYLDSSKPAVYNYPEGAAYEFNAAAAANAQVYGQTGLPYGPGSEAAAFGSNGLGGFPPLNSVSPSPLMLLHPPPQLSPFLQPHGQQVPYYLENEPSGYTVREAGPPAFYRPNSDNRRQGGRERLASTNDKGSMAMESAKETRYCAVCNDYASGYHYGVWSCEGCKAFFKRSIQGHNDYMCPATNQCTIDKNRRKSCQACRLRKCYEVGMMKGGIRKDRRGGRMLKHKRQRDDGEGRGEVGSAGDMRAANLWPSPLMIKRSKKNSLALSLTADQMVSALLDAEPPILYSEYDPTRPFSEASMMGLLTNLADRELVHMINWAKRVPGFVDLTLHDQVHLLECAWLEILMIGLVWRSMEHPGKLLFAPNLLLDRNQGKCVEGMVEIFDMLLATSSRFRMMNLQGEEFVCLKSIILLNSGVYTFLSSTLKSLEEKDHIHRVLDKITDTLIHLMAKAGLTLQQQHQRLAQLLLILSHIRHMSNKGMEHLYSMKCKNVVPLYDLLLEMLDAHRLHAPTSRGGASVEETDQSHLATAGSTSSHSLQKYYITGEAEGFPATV

What is called IC50 is the point on the concentration scale where inhibition reaches its midpoint. Consider `COc1cccc2c1C(=O)c1c(O)c3c(c(O)c1C2=O)C[C@@](O)(C(=O)CO)C[C@@H]3O[C@H]1C[C@H](NCNC(=O)c2ccccc2O)[C@H](O)[C@H](C)O1` [doxsaliform, N-(2-Hydroxybenzamido-methyl)-doxorubicin], for which the “estimated pKa of the amino moiety” value in data set [1] was 3.0-3.5. In addition, the “storage stability of lyopholyzed salts” value in data set [1] (−20° C.) is “stable at −20 °C for periods of several months”. In data set [1] (−20° C., after 3 weeks), the “decomposition of the free base on storage” value is recorded as roughly 20%. In addition, in data set [2], the IC50 is 0.06 µM and 0.05 µM.

In the case of `CC/C(=C(/c1ccc(O)cc1)c1ccc(OCCN(C)CCOCCOCCO/N=C/c2ccc(O)c(C(=O)NCN[C@H]3C[C@H](O[C@H]4C[C@](O)(C(=O)CO)Cc5c(O)c6c(c(O)c54)C(=O)c4c(OC)cccc4C6=O)O[C@@H](C)[C@H]3O)c2)cc1)c1ccccc1` [11c, E/Z-N-(2-Hydroxy-5-{[2-(2-{2-[(2-{4-[1-(4-hydroxy-phenyl)-2-phenyl-but-1-enyl]-phenoxy}-ethyl)-methyl-amino]-ethoxy}-ethoxy)-ethoxyimino]-methyl}-benzamide)-doxorubicin], the “estrogen receptor binding affinity retained relative to targeting group alone” value in data set [3] is recorded as 2.5%. Moreover, the “RBA^OHT” value in data set [3] (relative to E/Z-4-OHT = 100) is 2.5. For the same molecule, in data set [4] (MDA-MB-231), the “fold uptake more than DOX” value was determined as 6 fold and the “fold uptake more than DOXSF” value is given as 2 fold. Also, the “uptake relative to MDA-MB-435 cells” value in data set [4] (MDA-MB-231, 1 h, 500 nM) is “about 25%”. Further, the “fluorophore retention vs DOXSF or DOX” value in data set [4] (MDA-MB-231, after 1 h treatment with 500 nM) is reported as “retained to a greater extent”.
